These results are taken from US20230148299A1, “FEM1B PROTEIN BINDING AGENTS AND USES THEREOF” (The Regents Of The University Of California, priority 2020, published 2023).

Experiment [1] deals with FEM1B (Homo sapiens, UniProt Q9UK73). Briefly: Fluorescence polarization binding of TAMRA-labeled FNIP1 degron peptide to recombinant FEM1B. To be noted: degron peptide treated with agent. The text has this:
FEM1B binds a conserved central degron in FNIP1. Deletion analysis of FNIP1 identifies a stretch of 20 amino acids that is required for its binding to FEM1B and its proteasomal degradation. FNIP1 variants were expressed in cells and tested for interaction with ^FLAGFEM1B by co-immunoprecipitation, and for degradation by measuring their abundance in the presence or absence of FEM1B. The FNIP1 degron is required for FEM1B binding and proteasomal degradation. […] FEM1B variants were immunoprecipitated and bound FNIP1 and FLCN were detected by Western blotting. The FNIP1 degron is sufficient to mediate FEM1B-dependent degradation. The FNIP1 degron was fused to GFP (GFP^degron) and expressed from the same plasmid as an IRES controlled mCherry. mCherry provides normalization for GFP fluorescence in each cell. […] Levels of GFP^degron and mCherry were determined by FACS, and their ratio is depicted for presence or absence of FEM1B variants. Deletion of FEM1B prevents FNIP1-degron dependent degradation. […] Cells were transfected with the GFP^degron/mCherry reporter, and analyzed for GFP and mCherry fluorescence by FACS. […] A TAMRA-labeled FNIP1 degron peptide was incubated with purified FEMIB or the control CRL1 adaptor FBXL17, and binding was measured by fluorescence polarization of the peptide. […] Ubiquitylation was monitored by gel electrophoresis and fluorescence detection. […]
For orientation: In fluorescence polarisation assays a small probe gives low polarisation when free and higher when bound to something large.

Experiment [2] concerns the target FEM1B-FNIP1 (Homo sapiens, UniProt Q9UK73). Briefly: Fluorescence polarization between FEM1B and FNIP1 (covalent ligand screen). It is filed as binding. To be noted: DMSO = 100, FP between FEM1B and FNIP1; for remaining activity at 5 µM: compound at 5 μM, read-out: Normalized FP 5 μM; for activity at 50 µM: compound at 50 μM, read-out: Normalized FP 50 μM. The text has this: FIG. 11. Fluorescence polarization screen to identify functional FEM1B-FNIP1-targeting covalent ligands.
FEM1B binds a conserved central degron in FNIP1. Deletion analysis of FNIP1 identifies a stretch of 20 amino acids that is required for its binding to FEM1B and its proteasomal degradation. FNIP1 variants were expressed in cells and tested for interaction with ^FLAGFEM1B by co-immunoprecipitation, and for degradation by measuring their abundance in the presence or absence of FEM1B. The FNIP1 degron is required for FEM1B binding and proteasomal degradation. […] FEM1B variants were immunoprecipitated and bound FNIP1 and FLCN were detected by Western blotting. The FNIP1 degron is sufficient to mediate FEM1B-dependent degradation. The FNIP1 degron was fused to GFP (GFP^degron) and expressed from the same plasmid as an IRES controlled mCherry. mCherry provides normalization for GFP fluorescence in each cell. […] Levels of GFP^degron and mCherry were determined by FACS, and their ratio is depicted for presence or absence of FEM1B variants. Deletion of FEM1B prevents FNIP1-degron dependent degradation. The FEM1B locus was deleted in 293T cells using CRISPR/Cas9. Cells were transfected with the GFP^degron/mCherry reporter, and analyzed for GFP and mCherry fluorescence by FACS. FEM1B directly binds the FNIP1 degron in vitro. A TAMRA-labeled FNIP1 degron peptide was incubated with purified FEMIB or the control CRL1 adaptor FBXL17, and binding was measured by fluorescence polarization of the peptide. The FNIP1 degron is sufficient to mediate CUL2^FEM1B-dependent ubiquitylation. The TAMRA-labeled FNIP1 degron was incubated with recombinant CUL2^FEM1B (unmodified or NEDD8-modified), E1, ubiquitin, ATP and the E2 enzymes UBE2D3 and/or UBE2R1. Ubiquitylation was monitored by gel electrophoresis and fluorescence detection.

For experiment [3], the system named is GFP-Fnip1 degron reporter. In words: GFP-Fnip1 degron reporter (GFP/mCherry) by flow cytometry. It counts as cell-based. To be noted: GFP/mCherry ratio by FACS. (In general: A flow cytometer gives signals particle by particle.)
Experimental: HEK293T cells were transfected 24 hours before flow cytometery with the GFP-Fnip1 degron reporter+/−Fem1b.
FNIP1 variants were expressed in cells and tested for interaction with ^FLAGFEM1B by co-immunoprecipitation, and for degradation by measuring their abundance in the presence or absence of FEM1B. […] FEM1B variants were immunoprecipitated and bound FNIP1 and FLCN were detected by Western blotting. […] The FNIP1 degron was fused to GFP (GFP^degron) and expressed from the same plasmid as an IRES controlled mCherry. mCherry provides normalization for GFP fluorescence in each cell. […] Levels of GFP^degron and mCherry were determined by FACS, and their ratio is depicted for presence or absence of FEM1B variants. […] Cells were transfected with the GFP^degron/mCherry reporter, and analyzed for GFP and mCherry fluorescence by FACS. […] A TAMRA-labeled FNIP1 degron peptide was incubated with purified FEMIB or the control CRL1 adaptor FBXL17, and binding was measured by fluorescence polarization of the peptide. […] The TAMRA-labeled FNIP1 degron was incubated with recombinant CUL2^FEM1B (unmodified or NEDD8-modified), E1, ubiquitin, ATP and the E2 enzymes UBE2D3 and/or UBE2R1. Ubiquitylation was monitored by gel electrophoresis and fluorescence detection.
Experiment [4] has as its target T1, BRD4 (Homo sapiens, UniProt O60885).
T1 construct: endogenous in cells; host or cells: 231MFP breast cancer cells
In words: BRD4 degradation by Western blot in 231MFP breast cancer cells. It is filed as cell-based. To be noted: 231MFP cells, NJH-01-106 12 hours, MZ1 4 hours. As for the experimental part:
231MFP breast cancer cells were treated for 12 hours with NJH-01-106, and 4 hours with known BRD4 PROTAC MZ1. BRD4 and loading control GAPDH levels were assessed by Western blotting following treatment with NJH-01-106 or MZ1, as described above, and are shown in FIG. 4.
Western Blot Protocol. Proteins were resolved by SDS-PAGE (4-20% TGX gels, Bio-Rad Laboratories, Inc.) and transferred to nitrocellulose membranes using the Trans-Blot Turbo transfer system (Bio-Rad). Membranes were blocked with 5% BSA in Tris-buffered saline containing Tween 20 (TBST) solution for 1 h at room temperature, washed in TBST and probed with primary antibody diluted in diluent, as recommended by the various manufacturers, overnight at 4° C. Primary antibodies used were: BRD4 (Cell Signaling Technologies #13440), GAPDH (ProteinTech 60004-1-Ig), FEM1B (ProteinTech 19544-1-AP). Following washes with TBST, the blots were incubated in the dark with secondary antibodies purchased from Li-Cor Biosciences and used at 1:10,000 dilution in 5% BSA in TBST at room temperature for 1 h. Blots were visualized using an Odyssey Li-Cor scanner after additional washes. Protein intensity was quantified using ImageJ software.
(In general: A western blot detects proteins with antibodies after separation by electrophoresis.)

FEM1B-FNIP1, sequence (Q9UK73 whole entry): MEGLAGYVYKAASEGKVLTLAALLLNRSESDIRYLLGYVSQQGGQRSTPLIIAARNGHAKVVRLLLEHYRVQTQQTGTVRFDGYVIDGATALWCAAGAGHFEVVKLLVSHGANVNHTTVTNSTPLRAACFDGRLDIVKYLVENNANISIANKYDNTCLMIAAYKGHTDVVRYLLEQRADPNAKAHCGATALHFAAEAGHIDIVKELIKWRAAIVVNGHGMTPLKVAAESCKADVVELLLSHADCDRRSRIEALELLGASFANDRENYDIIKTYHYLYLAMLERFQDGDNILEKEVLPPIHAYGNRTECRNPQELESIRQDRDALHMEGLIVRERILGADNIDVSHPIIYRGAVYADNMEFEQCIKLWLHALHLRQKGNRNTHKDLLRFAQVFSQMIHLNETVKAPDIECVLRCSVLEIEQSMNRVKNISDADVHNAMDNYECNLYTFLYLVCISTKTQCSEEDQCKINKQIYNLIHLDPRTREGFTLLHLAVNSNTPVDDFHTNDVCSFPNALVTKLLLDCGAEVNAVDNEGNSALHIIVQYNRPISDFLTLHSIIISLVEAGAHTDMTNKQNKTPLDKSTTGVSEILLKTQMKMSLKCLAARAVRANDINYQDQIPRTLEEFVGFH
FEM1B, sequence (Q9UK73 whole entry, the tested form may be a part): as the sequence (Q9UK73 whole entry) above

For `CCN1C(=O)C=CC1=O` [N-ethylmaleimide], the “recognition of FNIP1 degron by FEM1B after treatment of degron with Cys-modifying agent” value in experiment [1] is “strongly inhibited its recognition by FEM1B”.
With `O=C(CCl)N(Cc1cccs1)c1ccc2c(c1)OCCO2` [EN-NJH-009], in experiment [2], the remaining activity at 5 µM is 74.8% and the activity at 50 µM amounted to 6%.
Regarding `CC(Cl)C(=O)Nc1ccc2c(c1)OCCO2` (stereo not drawn) [EN-NJH-005], in experiment [2], the remaining activity at 5 µM was determined as 98.1% and the activity at 50 µM is 101%.
In the same order, the values of `O=C(CCl)Nc1ccc2c(c1)OCCO2` [EN-NJH-013] are 93.1% and 21.3%.
For the compound `C#CCCCCNC(=O)CI` [IAyne], the “stability of GFP^degron reporter” value in experiment [3] is recorded as “stabilizes GFP^degron in cells”.
`Cc1cc(C)cc(N(CCC#N)C(=O)CCl)c1` [EN-NJH-017]: in experiment [2], the remaining activity at 5 µM was found to be 63.7% and the activity at 50 µM is 17.4%.
As to `C=CC(=O)N(CCC#N)c1ccc2c(c1)OCCO2` [NJH-01-098], in experiment [2], the remaining activity at 5 µM worked out at 105% and the activity at 50 µM is 115%.
Turning to `CCN(C(=O)CCl)c1ccc2c(c1)OCO2` [EN-NJH-004], in experiment [2], the remaining activity at 5 µM was determined as 76.1% and the activity at 50 µM came out at 11.8%.
The like results for `CC(C)(C)OC(=O)N1CCOc2ccc(N(CCC#N)C(=O)CCl)cc21` [NJH-01-073] were, in that order, 32.8% and 9.87%.
Consider `Cc1sc2c(c1C)C(c1ccc(Cl)cc1)=N[C@@H](CC(=O)NCCCCCNC(=O)CN1CCOc3cc(N(CCC#N)C(=O)CCl)ccc31)c1nnc(C)n1-2` [EN106 linked to BRD4 inhibitor JQ1, (S)-2-chloro-N-(4-(2-((5-(2-(4-(4-chlorophenyl)-2,3,9-trimethyl-6H-thieno[3,2-f][1,2,4]triazolo[4,3-a][1,4]diazepin-6-yl)acetamido)pentyl)amino)-2-oxoethyl)-3,4-dihydro-2H-benzo[b][1,4]oxazin-7-yl)-N-(2-cyanoethyl)acetamide], for which the “degradation of BRD4” value in experiment [4] is recorded as “degradation of BRD4”.
With `N#CCCN(C(=O)CCl)c1ccc(F)cc1` [EN-NJH-015], in experiment [2], the remaining activity at 5 µM amounted to 36.3% and the activity at 50 µM is 16.3%.
For the compound `O=C(CCl)N(CC=Cc1ccccc1)c1ccc2c(c1)OCCO2` [EN-NJH-021], in experiment [2], the remaining activity at 5 µM came to 86.4% and the activity at 50 µM turned out to be 26.8%.
In the same order, the values of `COc1ccccc1N(CCC#N)C(=O)CCl` [EN-NJH-012] are 90.4% and 24.8%.
As to `CC(=O)N[C@@H](CS)C(=O)O` [N-acetylcysteine], in experiment [3], the “stability of GFP^degron reporter” value is “does not affect the stability of the GFP^degron reporter”.
Turning to `O=C(CCl)Nc1cc2c(cc1Cl)OCCO2` [EN-NJH-014], in experiment [2], the remaining activity at 5 µM was found to be 94.8% and the activity at 50 µM was 21.8%.
Regarding `N#CCCN(C(=O)CCl)c1ccccc1` [EN-NJH-019], in experiment [2], the remaining activity at 5 µM amounted to 44.1% and the activity at 50 µM turned out to be 19.4%.
On to antimycin A, for which the “stability of GFP^degron reporter” value in experiment [3] is on record as “stabilized GFP^degron”.
With `C=CCOc1ccccc1CN(C(=O)CCl)c1ccc2c(c1)OCCO2` [EN-NJH-001], in experiment [2], the remaining activity at 5 µM came to 97.8% and the activity at 50 µM turned out to be 19.1%.
In the case of `NC(=O)CI` [iodoacetamide], the “recognition of FNIP1 degron by FEM1B after treatment of degron with Cys-modifying agent” value in experiment [1] is recorded as “strongly inhibited its recognition by FEM1B”.
Turning to `CCOc1ccc(N(CCC#N)C(=O)CCl)cc1` [EN-NJH-002], in experiment [2], the remaining activity at 5 µM was found to be 40.1% and the activity at 50 µM was determined as 8.82%.
For `N#CCCN(C(=O)CCl)c1ccccc1F` [EN-NJH-010], in experiment [2], the remaining activity at 5 µM stood at 46.8% and the activity at 50 µM is 14.6%.
Take `Cc1ncsc1-c1ccc(CNC(=O)[C@@H]2C[C@@H](O)CN2C(=O)[C@@H](NC(=O)COCCOCCOCCNC(=O)C[C@@H]2N=C(c3ccc(Cl)cc3)c3c(sc(C)c3C)-n3c(C)nnc32)C(C)(C)C)cc1` [MZ1, reference compound]: the “degradation of BRD4” value in experiment [4] is “degradation of BRD4”.
With `Cc1ccc(N(CCC#N)C(=O)CCl)cc1` [EN-NJH-011], in experiment [2], the remaining activity at 5 µM stood at 45.8% and the activity at 50 µM came out at 4.29%.
In the case of `N#CCCN(C(=O)CCl)c1cccc(Cl)c1` [EN-NJH-003], in experiment [2], the remaining activity at 5 µM is 54.1% and the activity at 50 µM is 2.7%.
The like results for `CC(=O)N1CCOc2ccc(N(CCC#N)C(=O)CCl)cc21` [NJH-01-085] were, in that order, 31.3% and 14.2%.
Regarding `CC(C)C[C@H](NC(=O)[C@H](CCc1ccccc1)NC(=O)CN1CCOCC1)C(=O)N[C@@H](Cc1ccccc1)C(=O)N[C@@H](CC(C)C)C(=O)[C@@]1(C)CO1` [carfilzomib], the “stability of GFP^degron reporter” value in experiment [3] is listed as “stabilizes the GFP^degron reporter”.
For `Cc1cc(N(CCC#N)C(=O)CCl)ccc1Cl` [EN-NJH-018], in experiment [2], the remaining activity at 5 µM was found to be 16.4% and the activity at 50 µM stood at 12%.
The like results for `C=CCOc1ccccc1CN(C(=O)CCl)c1ccc2c(c1)OCO2` [EN-NJH-006] were, in that order, 89.7% and 21.5%.
In the same order, the values of `COc1cccc(CN(C(=O)CCl)c2ccc3c(c2)OCCO3)c1` [SB-02-092] are 54.9% and 12.6%.
Consider `COc1cc2c(cc1OC)N(C(=O)CCl)CC2` [EN-NJH-020], for which, in experiment [2], the remaining activity at 5 µM worked out at 15.6% and the activity at 50 µM was determined as 19.1%.
Turning to `CC(Cl)C(=O)N(CCC#N)c1ccccc1` (stereo not drawn) [EN-NJH-008], in experiment [2], the remaining activity at 5 µM worked out at 97.9% and the activity at 50 µM amounted to 113%.
In the same order, the values of `CC(C)(C)OC(=O)CN1CCOc2cc(N(CCC#N)C(=O)CCl)ccc21` [NJH-01-093] are 26.5% and 15.2%.
The like results for `O=C(CCl)Nc1cc2c(cc1Br)OCCO2` [EN-NJH-007] were, in that order, 87.7% and 11.7%.
Turning to `Cc1ccc(N(CCC#N)C(=O)CCl)cc1C` [EN-NJH-016], in experiment [2], the remaining activity at 5 µM was 43.7% and the activity at 50 µM turned out to be 11.3%.
